Test results from US9637516B2, “Betulinic acid proline derivatives as HIV inhibitors” (HETERO RESEARCH FOUNDATION, priority 2012, dated 2017).

Tests used:
[1] = Single dose oral pharmacokinetic study; type: in vivo, mice; settings: mouse, plasma
Method: The test item was administered through oral route to animals (rat/mice) at 30 mg/kg dose in a suitable vehicle at 10 ml/kg dose volume. Blood samples (˜50 uL at each time point) were collected from retro-orbital plexus using K3 EDTA as anticoagulant in eppendorf tubes at defined time intervals under light ether anesthesia. The samples were centrifuged at 3500×g to separate plasma and stored at −80° C. until analysis.
Sample analysis: Test samples were analyzed using LC-MS-MS after developing fit-for-purpose method for each of test compound.

HIV-1 strain 92HT599 = test: Antiviral activity: p24 estimation in MT2 cells infected with HIV-1 strain 92HT599; type: cell-based; settings: for inhibition at 0.1 µM: Human immunodeficiency virus 1, 100 nM; for inhibition at 0.1 µM / inhibition at 1 µM: HIV-1 92HT599, p24, ~96 hours; for inhibition at 1 µM: Human immunodeficiency virus 1, 1000 nM
Method: MT2 cells were infected with HIV-1 strain 92HT599 (10 TCID 50/30000 cells). The infected cells were plated at the concentration of ˜30 000 cells per well in 96 well plate. Test compound was added to the micro plate in defined format with the final concentration of DMSO (vehicle) is not more than 1%. Incubation was carried out in CO2 incubator for ˜96 hours for viral infection. At the end of incubation period an aliquot from each well was taken for p24 estimation. The quantitation of p24 is an index for antiviral activity of the compound. Percent inhibition was calculated with reference to control values (vehicle controls). p-24 estimation was carried out using Advance biosciences kit as per the procedure detailed by supplier.

[2] = Mice oral PK @30 mg/kg (Table 3)
[3] = Mice oral PK @30 mg/kg (Table 4)

C=C(C)[C@@H]1CC[C@]2(C(=O)N3CCC[C@@H]3c3nc(-c4cccnc4)no3)CC[C@]3(C)[C@H](CC[C@@H]4[C@@]5(C)CC[C@H](OC(=O)CC(C)(C)CC(=O)O)C(C)(C)[C@@H]5CC[C@]43C)[C@@H]12 [Compound 4, 3,3-dimethyl-5-oxo-5-((1R,3aS,5aR,5bR,7aR,9S,11aR,11bR,13aR,13bR)-5a,5b,8,8,11a-pentamethyl-1-(prop-1-en-2-yl)-3a-((R)-2-(3-(pyridin-3-yl)-1,2,4-oxadiazol-5-yl)pyrrolidine-1-carbonyl)icosahydro-1H-cyclopenta[a]chrysen-9-yloxy)pentanoic acid]
AUC(0-t) [1, 2]: 36.9 µg·h/mL | Cmax [1, 2]: 4830 ng/mL | Tmax [1, 2]: 2.5 h | inhibition at 0.1 µM (HIV-1 strain 92HT599): 84% | inhibition at 1 µM (HIV-1 strain 92HT599): 96% | IC50 (HIV-1 strain 92HT599; Human immunodeficiency virus 1, HIV-1 92HT599, p24): 8.64 nM

C=C(C)[C@@H]1CC[C@]2(C(=O)N3CCCC3c3ncc(-c4ccc(C#N)cc4)[nH]3)CC[C@]3(C)[C@H](CC[C@@H]4[C@@]5(C)CC[C@H](OC(=O)[C@H]6C[C@@H](C(=O)O)C6(C)C)C(C)(C)[C@@H]5CC[C@]43C)[C@@H]12 (stereo partly drawn) [Compound 19]
inhibition at 0.1 µM (HIV-1 strain 92HT599): 86% | inhibition at 1 µM (HIV-1 strain 92HT599): 100%

C=C(C)[C@@H]1CC[C@]2(C(=O)N3CCC[C@H]3c3ncc(-c4ccc(O)cc4)[nH]3)CC[C@]3(C)[C@H](CC[C@@H]4[C@@]5(C)CC[C@H](OC(=O)C6CC(C(=O)O)C6(C)C)C(C)(C)[C@@H]5CC[C@]43C)[C@@H]12 (stereo partly drawn) [Compound 36, 3-((((1R,3aS,5aR,5bR,7aR,9S,11aR,11bR,13aR,13bR)-3a-((S)-2-(5-(4-hydroxyphenyl)-1H-imidazol-2-yl)pyrrolidine-1-carbonyl)-5a,5b,8,8,11a-pentamethyl-1-(prop-1-en-2-yl)icosahydro-1H-cyclopenta[a]chrysen-9-yl)oxy)carbonyl)-2,2-dimethylcyclobutane-1-carboxylic acid]
AUC(0-inf) [1, 3]: 518 µg·h/mL | AUC(0-t) [1, 3]: 334 µg·h/mL | Cmax [1, 3]: 10900 ng/mL | half-life [1, 3]: 30.3 h

C=C(C)[C@@H]1CC[C@]2(C(=O)N3CCC[C@H]3c3ncc(-c4ccc([N+](=O)[O-])cc4)[nH]3)CC[C@]3(C)[C@H](CC[C@@H]4[C@@]5(C)CC[C@H](OC(=O)[C@H]6C[C@@H](C(=O)O)C6(C)C)C(C)(C)[C@@H]5CC[C@]43C)[C@@H]12 [Compound 17]
inhibition at 0.1 µM (HIV-1 strain 92HT599): 96% | inhibition at 1 µM (HIV-1 strain 92HT599): 100%

C=C(C)[C@@H]1CC[C@]2(C(=O)N3CCC[C@@H]3c3ncc(-c4ccccc4)[nH]3)CC[C@]3(C)[C@H](CC[C@@H]4[C@@]5(C)CC[C@H](OC(=O)C6CC(C(=O)O)C6(C)C)C(C)(C)[C@@H]5CC[C@]43C)[C@@H]12 (stereo partly drawn) [Compound 41, 2,2-dimethyl-3-((((1R,3aS,5aR,5bR,7aR,9S,11aR,11bR,13aR,13bR)-5a,5b,8,8,11a-pentamethyl-3a-((R)-2-(5-phenyl-1H-imidazol-2-yl)pyrrolidine-1-carbonyl)-1-(prop-1-en-2-yl)icosahydro-1H-cyclopenta[a]chrysen-9-yl)oxy)carbonyl)cyclobutane-1-carboxylic acid]
inhibition at 0.1 µM (HIV-1 strain 92HT599): 98% | inhibition at 1 µM (HIV-1 strain 92HT599): 99%

CC1(C)C(C(=O)O)CC1C(=O)O[C@H]1CC[C@]2(C)[C@H]3CC[C@@H]4[C@H]5[C@H](C6(C)CC6)CC[C@]5(C(=O)N5CCC[C@H]5c5ncc(-c6cccnc6)[nH]5)CC[C@@]4(C)[C@]3(C)CC[C@H]2C1(C)C (stereo partly drawn) [Compound 32, 2,2-dimethyl-3-((((1R,3aS,5aR,5bR,7aR,9S,11aR,11bR,13aR,13bR)-5a,5b,8,8,11a-pentamethyl-1-(1-methylcyclopropyl)-3a-((S)-2-(5-(pyridin-3-yl)-1H-imidazol-2-yl)pyrrolidine-1-carbonyl)icosahydro-1H-cyclopenta[a]chrysen-9-yl)oxy)carbonyl)cyclobutane-1-carboxylic acid]
inhibition at 0.1 µM (HIV-1 strain 92HT599): 100% | inhibition at 1 µM (HIV-1 strain 92HT599): 100%
